Experimental data as given in US20020006420A1, “USE OF A 2-AMINO-ALKANE POLYOL AS AGENT FOR TREATING SKIN AGEING SIGNS” (priority 1997, published 2002).

How the values were obtained:
Format in all cases: cell-based
HaCat cells [1] = experiment: Effect on cell viability (mitochondrial respiration, XTT kit); settings: 50 nM
Experimental: (§1) HaCat cells are cultured as above.
(§2) They are then inoculated at the density of 20,000 cells per well into the 24 wells of multiwell-type plates (Costar, France).
(§3) 24 hours after inoculation, the cells are brought into contact with various compounds tested in a KBM medium (company Clonetics) containing insulin at 5 μg/ml and hydrocortisone at 0.5 μg/ml.
(§4) The cell viability is evaluated 48 hours later by the measurement of mitochondrial respiration. This is carried out with the aid of an XTT kit sold by the company Boehringer and according to the supplier's instructions.
Compounds A and B of the preceding example were tested at the concentration of 50 nM, as well as a derivative based on sphingenine: N-palmitoylsphingenine from Sigma (C16H).
The results, expressed as a percentage, represent the increase in the number of cells relative to the control, that is to say relative to a culture carried out under the same conditions in the absence of alkanediol compounds.

HaCat cells [2] = experiment: Cell viability in the presence of N-acetylsphingenine (XTT kit); settings: 10 μM
Experimental: HaCat cells are cultured as in Example 2.
as §3
The cells are cultured in the presence of the 2-amino-1,3-octadecanediol to be tested until the cell viability is evaluated.
The N-acteylsphingenine at the concentration of 10 μM is added to the culture medium over 2 hours at the beginning of the experiment.
as §4
The experiment was carried out with the following compounds at the concentration of 50 nM:
in comparison with the culture medium without alkanediol and without N-acetylsphingenine (A), and with a medium containing only N-acetylsphingenine (B).
The results, expressed as a percentage, represent the number of cells relative to the control (A), that is to say relative to a culture carried out under the same conditions in the absence of alkanediol compounds and of N-acetysphingenine.

HaCat cells [3] = experiment: Proliferative effect on keratinocytes in culture (cell counting, Coulter Counter); settings: for increase in the number of cells relative to the control: counting 5 days after addition
Experimental: HaCat cells (Boukamp et al., J. Cell Biol. Vol. 106, March 1988, 761-771) are cultured in DMEM medium (company Gibco) containing amino acids (mixture of nonessential amino acids) at the concentration of 0.1 mM, penicillin and streptomycin at the respective concentrations of 50 International Units per milliliter and 50 μg/ml, glutamine at the concentration of 2 mM, sodium pyruvate at the concentration of 1 mM and foetal calf serum at 10%. These cells were inoculated at the density of 10,000 cells per well into the 24 wells of multiwell-type plates (Costar, France).
24 hours after inoculation, the cells are brought into contact with various compounds tested in a KBM medium (company Clonetics) containing 0.15 mM of calcium ion, insulin at 5 μg/ml, hydrocortisone at 0.5 μg/ml and lipid-free bovine serum albumin at 1 μg/ml.
Cell counting is carried out 5 days after the addition of the various ceramides using a cell counter of the Coulter Counter type.
The various compounds are tested at 0.5 nM, 5 nM, 50 nM and 500 nM.
The results, expressed as a percentage, represent the increase in the number of cells relative to the control, that is to say relative to a culture carried out under the same conditions in the absence of sphinganine.

HaCat cells [4] = experiment: Effect on the cell cycle (BrdU incorporation, S phase); settings: 50 nM
Experimental: as §1, §2
24 hours after inoculation, the cells are brought into contact with various compounds tested in a KBM medium (company Clonetics) containing insulin at 5 μg/ml and hydrocortisone at 0.5 μg/ml, and 5-bromo-2′-deoxyuridine (BrdU) at 1 μM.
[…] This is carried out with the aid of a “BrdU fast” kit sold by the company Boehringer and according to the supplier's instructions.
Compounds A and B of the preceding example were tested at the concentration of 50 nM.
The results, expressed as a percentage, represent the increase in the number of cells which entered the S phase relative to the control, that is to say relative to a culture carried out under the same conditions in the absence of alkanediol compounds.

| Compound | effect on viability of keratinocytes in culture (in words) (HaCat cells [1]) | effect of N-acetylsphingenine on cell viability (in words) (HaCat cells [2]) | proliferative activity on keratinocytes in culture (in words) (HaCat cells [3]) | increase in the number of cells relative to the control (HaCat cells [3]; 0.5 nM) [%] | increase in the number of cells relative to the control (HaCat cells [3]; 5 nM) [%] | increase in the number of cells relative to the control (HaCat cells [3]; 50 nM) [%] | increase in the number of cells relative to the control (HaCat cells [3]; 500 nM) [%] | effect on number of keratinocytes which entered the S phase (in words) (HaCat cells [4]) | increase in the number of cells which entered the S phase relative to the control (HaCat cells [4]; 72 hours) [%] | increase in the number of cells which entered the S phase relative to the control (HaCat cells [4]; 96 hours) [%] | cell viability: increase in the number of cells relative to the control (HaCat cells [1]; XTT 48 hours later) |
| --- | --- | --- | --- | --- | --- | --- | --- | --- | --- | --- | --- |
| CCCCCCCCCCCCC/C=C/[C@@H](O)[C@H](CO)NC(=O)CCCCCCCCCCCCCCC [Compound C16H, N-palmitoylsphingenine, reference compound] | cytotoxic effect |  |  |  |  |  |  |  |  |  |  |
| N-acetylsphingenine [B] |  | decrease in cell viability |  |  |  |  |  |  |  |  |  |
| CCCCCCCCCCCCCCCC(O)C(N)CO (single isomer, unassigned) [A, 2-amino-1,3-octadecanediol] | increase the viability |  | proliferative activity | 7 | 15 | 17 | 30 | increase the number of keratinocytes which entered the S phase | 36 | 41 | +17% |
